Holding throughout (assay type): in vivo
The subject of experiment [1] is Amaranthus retoflexus (AMARE). Put plainly: Post-emergence herbicidal glasshouse test. Particulars: post-emergence, 250 g/ha, 13 days after application. How it is done:
(§1) Seeds of a variety of test species are shown in standard soil in pots Amaranthus retoflexus (AMARE), Ipomoea hederacea (IPOHE), Solanum nigrum (SOLNI), Lolium perenne (LOLPE). Echinochloa crus-galli (ECHCG), Setaria faberi (SETFA)). After cultivation for one day (pre-emergence) or after 8 days cultivation (post-emergence) under controlled conditions in a glasshouse (at 24/16° C., day/night; 14 hours light; 65% humidity), the plants are sprayed with an aqueous spray solution derived from the formulation of the technical active ingredient in acetone/water (50:50) solution containing 0.5% Tween 20 (polyoxyethylene sorbitan monolaurate, CAS RN 9005-64-5). Compounds are applied at 250 g/ha unless otherwise stated. The test plants are then grown in a glasshouse under controlled conditions in a glasshouse (at 24/16° C., day/night; 14 hours light; 65% humidity) and watered twice daily. After 13 days for pre and post-emergence, the test is evaluated for the percentage damage caused to the plant. The biological activities are shown in the following table on a five-point scale (5=81-100%; 4=61-80%; 3=41-60%; 2=21-40%; 1=0-20%).
(§2) Using the experimental conditions outlined above, a further test is conducted to compare the herbicidal properties of the difluro containing compound (1.014) with a representative compound (C1) referred to in GB901553. The compounds are applied at 1000 g/ha and 500 g/ha. The test is evaluated for the percentage damage caused to the plant (% phytotoxicity).

Experiment [2] concerns Echinochloa crus-galli (ECHCG). Put plainly: Post-emergence herbicidal glasshouse test. The settings on record: post-emergence, 250 g/ha, 13 days after application. How it is done:
as §1, §2

For experiment [3], the system named is Ipomoea hederacea (IPOHE). Nature of the experiment: Post-emergence herbicidal glasshouse test. Particulars: post-emergence, 250 g/ha, 13 days after application. How it is done:
as §1, §2

The test system of experiment [4] is Lolium perenne (LOLPE). Put plainly: Post-emergence herbicidal glasshouse test. Particulars: post-emergence, 250 g/ha, 13 days after application. Here is the method:
as §1, §2

For experiment [5], the system named is Setaria faberi (SETFA). Put plainly: Post-emergence herbicidal glasshouse test. The settings on record: post-emergence, 250 g/ha, 13 days after application. How it is done: as §1, §2
The subject of experiment [6] is Solanum nigrum (SOLNI). Put plainly: Post-emergence herbicidal glasshouse test. The settings on record: post-emergence, 250 g/ha, 13 days after application. Here is the method: as §1, §2
Experiment [7] concerns Amaranthus retoflexus (AMARE). Put plainly: Pre-emergence herbicidal glasshouse test. The settings on record: pre-emergence, 250 g/ha, 13 days after application. How it is done:
as §1, §2

Experiment [8] concerns Echinochloa crus-galli (ECHCG). Put plainly: Pre-emergence herbicidal glasshouse test. Particulars: pre-emergence, 250 g/ha, 13 days after application. Here is the method: as §1, §2
The test system of experiment [9] is Ipomoea hederacea (IPOHE). Put plainly: Pre-emergence herbicidal glasshouse test. The settings on record: pre-emergence, 250 g/ha, 13 days after application. Here is the method: as §1, §2
The test system of experiment [10] is Lolium perenne (LOLPE). Put plainly: Pre-emergence herbicidal glasshouse test. The settings on record: pre-emergence, 250 g/ha, 13 days after application. How it is done: as §1, §2
Experiment [11] relates to Setaria faberi (SETFA). Put plainly: Pre-emergence herbicidal glasshouse test. The settings on record: pre-emergence, 250 g/ha, 13 days after application. How it is done: as §1, §2
Experiment [12] concerns Solanum nigrum (SOLNI). Nature of the experiment: Pre-emergence herbicidal glasshouse test. Particulars: pre-emergence, 250 g/ha, 13 days after application. Here is the method: as §1, §2

As to `O=C(O)C(F)(F)c1c(Cl)ccc(Cl)c1Cl` [Compound 1.001], the “percentage damage caused to the plant, five-point scale, AMARE” value (shortened to “percentage damage caused … AMARE”) in [1] and in experiment [7] was 5 (5=81-100%) in each case. Besides, the “percentage damage caused to the plant, five-point scale, ECHCG” value (shortened to “percentage damage caused … ECHCG”) in [2] and in [8] was 1 (1=0-20%) each time. Also, the results for the “percentage damage caused to the plant, five-point scale, IPOHE” value (shortened to “percentage damage caused … IPOHE”) in experiment [3] and in [9] were 4 (4=61-80%) and 3 (3=41-60%), respectively. Moreover, the “percentage damage caused to the plant, five-point scale, LOLPE” value (shortened to “percentage damage caused … LOLPE”) in experiment [4] and in experiment [10] was 1 (1=0-20%) throughout. In addition, the “percentage damage caused to the plant, five-point scale, SETFA” value (shortened to “percentage damage caused … SETFA”) in experiment [5] is 3 (3=41-60%); in experiment [11], 1 (1=0-20%). Moreover, the figures for the “percentage damage caused to the plant, five-point scale, SOLNI” value (shortened to “percentage damage caused … SOLNI”) in [6] and in experiment [12] were 4 (4=61-80%) and 1 (1=0-20%), respectively.

Take `COC(=O)C(F)(F)c1c(Cl)ccc(Cl)c1Cl` [Compound 1.002]: the “percentage damage caused … AMARE” value in experiment [1] and in [7] was 4 (4=61-80%) throughout. The “percentage damage caused … ECHCG” value in [2] and in [8] was 1 (1=0-20%) each time. The “percentage damage caused … IPOHE” value in [3] is reported as 2 (2=21-40%); in [9], 1 (1=0-20%). Further, the “percentage damage caused … LOLPE” value in experiment [4] and in experiment [10] was 1 (1=0-20%) each time. In addition, the “percentage damage caused … SETFA” value in [5] and in [11] was 1 (1=0-20%) in each case. Besides, the figures for the “percentage damage caused … SOLNI” value in experiment [6] and in experiment [12] were 4 (4=61-80%) and 1 (1=0-20%), respectively.

For the compound `COC(=O)C(F)(F)c1ccc(Cl)cc1Cl` [Compound 1.003], the “percentage damage caused … AMARE” value is 3 (3=41-60%) in experiment [1] and 4 (4=61-80%) in [7]. The “percentage damage caused … ECHCG” value in experiment [2] and in experiment [8] was 1 (1=0-20%) in each case. Besides, the “percentage damage caused … IPOHE” value in [3] and in experiment [9] was 3 (3=41-60%) in each case. The “percentage damage caused … LOLPE” value in experiment [4] and in experiment [10] was 1 (1=0-20%) each time. Also, the “percentage damage caused … SETFA” value in experiment [5] and in experiment [11] was 1 (1=0-20%) each time. Moreover, the “percentage damage caused … SOLNI” value is on record as 3 (3=41-60%) in experiment [6] and 2 (2=21-40%) in experiment [12].

In the case of `O=C(O)C(F)(F)c1ccc(Cl)cc1Cl` [Compound 1.004], the “percentage damage caused … AMARE” value in [1] and in experiment [7] was 4 (4=61-80%) each time. Further, the “percentage damage caused … ECHCG” value in experiment [2] and in [8] was 1 (1=0-20%) each time. Also, the “percentage damage caused … IPOHE” value in experiment [3] and in [9] was 4 (4=61-80%) throughout. Moreover, the “percentage damage caused … LOLPE” value in experiment [4] and in [10] was 1 (1=0-20%) throughout. Further, the “percentage damage caused … SETFA” value in [5] and in experiment [11] was 1 (1=0-20%) throughout. Moreover, the “percentage damage caused … SOLNI” value is reported as 4 (4=61-80%) in [6] and 3 (3=41-60%) in experiment [12].

As for `O=C(O)C(F)(F)c1cc(Cl)cc(Cl)c1` [Compound 1.007], the “percentage damage caused … AMARE” value in experiment [1] is listed as 3 (3=41-60%); in [7], 1 (1=0-20%). Moreover, the “percentage damage caused … ECHCG” value in experiment [2] and in experiment [8] was 1 (1=0-20%) throughout. Further, the “percentage damage caused … IPOHE” value in [3] and in experiment [9] was 1 (1=0-20%) in each case. In addition, the “percentage damage caused … LOLPE” value in [4] and in [10] was 1 (1=0-20%) throughout. For the same compound, the “percentage damage caused … SETFA” value in [5] and in experiment [11] was 1 (1=0-20%) each time. The “percentage damage caused … SOLNI” value in experiment [6] is reported as 3 (3=41-60%); in [12], 1 (1=0-20%).

Consider `O=C(O)C(F)(F)c1ccccc1Cl` [Compound 1.011], for which the “percentage damage caused … AMARE” value in experiment [1] and in experiment [7] was 5 (5=81-100%) each time. Moreover, the “percentage damage caused … ECHCG” value in experiment [2] and in [8] was 1 (1=0-20%) throughout. For the same compound, the “percentage damage caused … IPOHE” value in [3] is on record as 3 (3=41-60%); in [9] it was 4 (4=61-80%). For the same compound, the “percentage damage caused … LOLPE” value in experiment [4] and in experiment [10] was 1 (1=0-20%) throughout. Further, the “percentage damage caused … SETFA” value was 1 (1=0-20%) in [5] and 2 (2=21-40%) in experiment [11]. Further, the figures for the “percentage damage caused … SOLNI” value in experiment [6] and in experiment [12] were 5 (5=81-100%) and 4 (4=61-80%), respectively.

`O=C(O)C(F)(F)c1cccc(Cl)c1Cl` [Compound 1.039]: in [1], the “percentage damage caused … AMARE” value was 5 (5=81-100%). For the same compound, the “percentage damage caused … ECHCG” value is reported as 2 (2=21-40%) in experiment [2] and 1 (1=0-20%) in experiment [8]. Besides, the entries for the “percentage damage caused … IPOHE” value in experiment [3] and in experiment [9] were 4 (4=61-80%) and 5 (5=81-100%), respectively. The figures for the “percentage damage caused … LOLPE” value in experiment [4] and in experiment [10] were 1 (1=0-20%) and 3 (3=41-60%), respectively. For the same compound, the “percentage damage caused … SETFA” value in [5] is reported as 3 (3=41-60%); in experiment [11] it was 2 (2=21-40%). The “percentage damage caused … SOLNI” value in [6] was 3 (3=41-60%).

As to `O=C(O)C(F)(F)c1cccc(Cl)c1Cl` [Compound 1.040], the “percentage damage caused … AMARE” value in experiment [1] is on record as 4 (4=61-80%). The “percentage damage caused … ECHCG” value in [2] was 2 (2=21-40%); in experiment [8] it was 1 (1=0-20%). Besides, the results for the “percentage damage caused … IPOHE” value in [3] and in experiment [9] were 3 (3=41-60%) and 5 (5=81-100%), respectively. The “percentage damage caused … LOLPE” value in [4] and in experiment [10] was 1 (1=0-20%) in each case. In addition, the “percentage damage caused … SETFA” value in [5] is listed as 3 (3=41-60%); in experiment [11], 1 (1=0-20%). Also, the “percentage damage caused … SOLNI” value in experiment [6] is 2 (2=21-40%).
